Data taken from paper PMC8878317, “Chemogenomics identifies acetyl-coenzyme A synthetase as a target for malaria treatment and prevention” (Cell Chemical Biology, 2022).

System: P. falciparum 3D7 parasites
Assay: Metabolomic profiling of compound-treated parasites (LC/MS);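 for Metabolite data: 3-Phosphoglycerate: Log2 fold change in abundance versus untreated parasite controls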;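 for Metabolite data: Myo-Inositol: Log2 fold change in abundance versus untreated parasite controls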;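 for Metabolite data: N-Carbamoyl-L-Aspartate: Log2 fold change in abundance versus untreated parasite controls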;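 for Metabolite data: Nicotinate: Log2 fold change in abundance versus untreated parasite controls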
Type: cell-based
Parameters: Metabolite data: dTMP / Metabolite data: GMP / Metabolite data: S-Adenosyl-L-Homocysteine / Metabolite data: 1_3-Bisphosphoglyceric acid: scale not given here
Description: The metabolite extraction protocol was performed as described elsewhere ([Allman et al., 2016]). Briefly, 1 mL of trophozoites that were magnetically purified to a concentration of 1×10^8 parasites/mL were placed into wells with 4 mL of RPMI 1640 media and allowed to recover for one hour. […] The culture was incubated for another 2.5 hr. The culture was centrifuged and quenched with 90% methanol containing 0.25 μM ^13C,^15N-Labeled-Aspartate, vortexed, and centrifuged. The supernatant was transferred to a new tube and dried for storage. Prior to analysis, the samples were resuspended to a final concentration of 1×10^8 parasites/mL in a solution of 3% methanol:water containing 1 μM chlorpropamide as an internal standard.
The chromatographic conditions used in this experiment were performed with slight modifications from previous methods ([Zhang et al., 2018]). Briefly, a Waters XSelect HSS C18 column was used on a gradient reverse-phase chromatographic configuration with 97:3 water:methanol with 10 mM tributylamine and 15 mM acetic acid (solvent A) and methanol (solvent B). A Thermo-Scientific Exactive Plus Orbitrap mass spectrometer was operated in negative mode for the detection of the metabolites. Peak picking and integration were performed using El-Maven LC/MS data processing software. The peak data were then exported to Excel where metabolite areas were normalized to the internal standards, blank subtracted, and averaged by condition.

## COc1cc2[nH]c(C)c(-c3ccc(Oc4ccc(OC(F)(F)F)cc4)cc3)c(=O)c2cc1Cl [ELQ-300]
  Metabolite data: 1_3-Bisphosphoglyceric acid: 0
  Metabolite data: 2_3-Diphosphoglyceric acid: -0.1098
  Metabolite data: 3-Phosphoglycerate: 0.01477
  Metabolite data: 4-Aminobutyrate: 0.29
  Metabolite data: 4-Phosphopantothenate: -0.3711
  Metabolite data: 4-phosphopantetheine: 0
  Metabolite data: 5-aminopentanoic acid: 0
  Metabolite data: 5-phosphoribosyl-1-pyrophosphate: 0
  Metabolite data: 6-Phospho-D-Gluconate: 0.1987
  Metabolite data: ADP-D-Glucose: -0.03292
  Metabolite data: Acetyl-CoA: -0.7931
  Metabolite data: Acetyllysine: -0.0938
  Metabolite data: Aconitate: 0.3201
  Metabolite data: CDP: -0.9142
  Metabolite data: CDP-Ethanolamine: -0.4266
  Metabolite data: CDP-choline: 0
  Metabolite data: CMP: -0.5539
  Metabolite data: CTP: -0.7898
  Metabolite data: Citrate/Isocitrate: 0.1898
  Metabolite data: Cyclic-AMP: 0.1104
  Metabolite data: Dihydroorotate: 5.061
  Metabolite data: FAD: 0.09303
  Metabolite data: FMN: -1.009
  Metabolite data: Fructose-1,6-Bisphosphate: 0.1196
  Metabolite data: Fumarate: 0.1542
  Metabolite data: GDP: -0.04006
  Metabolite data: GMP: 0.4588
  Metabolite data: GTP: 0.1697
  Metabolite data: Glucose-1/6-Phosphate: 0.2608
  Metabolite data: Glutathione Disulfide: -0.1199
  Metabolite data: Hexose: 0
  Metabolite data: Hydroxyisocaproic acid: 0
  Metabolite data: Indole: 0.2721
  Metabolite data: Ketoleucine: 0
  Metabolite data: L-arginino-succinate: 0
  Metabolite data: Lactate: -0.08432
  Metabolite data: Malate: 0.0586
  Metabolite data: Myo-Inositol: -0.4815
  Metabolite data: N-Acetyl-Glutamate: 0.1479
  Metabolite data: N-Acetyl-L-Alanine: -0.6073
  Metabolite data: N-Acetyl-L-Ornithine: -0.1715
  Metabolite data: N-Carbamoyl-L-Aspartate: 4.761
  Metabolite data: NAD+: 0.09044
  Metabolite data: NADH: 1.43
  Metabolite data: NADP+: -0.1602
  Metabolite data: NADPH: 3.029
  Metabolite data: Nicotinate: 0.05305
  Metabolite data: Octulose 8/1-Phosphate: -0.704
  Metabolite data: Orotate: 0.01858
  Metabolite data: PD: -0.006669
  Metabolite data: PE: -0.3407
  Metabolite data: PEEK: -0.3859
  Metabolite data: Phenol Red: 0
  Metabolite data: Pyroglutamic acid: 0.05668
  Metabolite data: S-Adenosyl-L-Homocysteine: -1.868
  Metabolite data: S-methyl-5'-thioadenosine: -0.1055
  Metabolite data: SD: -0.2791
  Metabolite data: Sedoheptulose Bisphosphate: 0.0682
  Metabolite data: UDP: -1.596
  Metabolite data: UDP-D-Glucose: -0.0232
  Metabolite data: UDP-D-Glucuronate: 0.002049
  Metabolite data: UDP-N-Acetyl-Glucosamine: -0.1795
  Metabolite data: UMP: -0.8903
  Metabolite data: UTP: -1.292
  Metabolite data: a-ketoglutarate: 0.1255
  Metabolite data: acetyl-aspartate: 0
  Metabolite data: arginine: 0
  Metabolite data: asparagine: 0
  Metabolite data: aspartate: 0
  Metabolite data: biotin: 0
  Metabolite data: chlorpropamide: 0
  Metabolite data: coenzyme A: 0
  Metabolite data: dAMP: -0.0907
  Metabolite data: dATP: 0.4618
  Metabolite data: dCDP: -0.107
  Metabolite data: dCMP: -0.1246
  Metabolite data: dCTP: -0.4381
  Metabolite data: dGDP/ADP: -0.01599
  Metabolite data: dGMP/AMP: -0.06466
  Metabolite data: dGTP/ATP: 0
  Metabolite data: dTDP: -1.258
  Metabolite data: dTMP: -1.023
  Metabolite data: dTTP: -1.011
  Metabolite data: folate: 0
  Metabolite data: glucono-lactone: 0
  Metabolite data: glutamate: 0
  Metabolite data: glutamine: 0
  Metabolite data: glutathione: 0
  Metabolite data: histidine: 0
  Metabolite data: hydroxyproline/Aminolevulinate: 0
  Metabolite data: isoleucine: 0
  Metabolite data: leucine: 0
  Metabolite data: maleic acid: 0
  Metabolite data: methionine: 0
  Metabolite data: nicotinamide mononucleotide: 0
  Metabolite data: orotidine-5'-phosphate: 0

## CCN(CC)S(=O)(=O)c1ccc(Cl)c(C(=O)Nc2ccc3nc(C)sc3c2)c1 [MMV019721-1]
  Metabolite data: 1_3-Bisphosphoglyceric acid: -0.1327
  Metabolite data: 2_3-Diphosphoglyceric acid: -0.1327
  Metabolite data: 3-Phosphoglycerate: 0.1031
  Metabolite data: 4-Aminobutyrate: 0.07842
  Metabolite data: 4-Phosphopantothenate: -0.4201
  Metabolite data: 4-phosphopantetheine: 0.1181
  Metabolite data: 5-aminopentanoic acid: 0.1488
  Metabolite data: 5-phosphoribosyl-1-pyrophosphate: -0.2633
  Metabolite data: 6-Phospho-D-Gluconate: -0.03558
  Metabolite data: ADP-D-Glucose: -0.0516
  Metabolite data: Acetyl-CoA: -1.632
  Metabolite data: Acetyllysine: -1.142
  Metabolite data: Aconitate: 0.3403
  Metabolite data: CDP: 0.8015
  Metabolite data: CDP-Ethanolamine: -0.104
  Metabolite data: CDP-choline: -0.1284
  Metabolite data: CMP: 0.9966
  Metabolite data: CTP: 0.6705
  Metabolite data: Citrate/Isocitrate: 0.04997
  Metabolite data: Cyclic-AMP: 0.2994
  Metabolite data: Dihydroorotate: -0.5549
  Metabolite data: FAD: 0.1056
  Metabolite data: FMN: -0.0123
  Metabolite data: Fructose-1,6-Bisphosphate: -0.009501
  Metabolite data: Fumarate: 0.02182
  Metabolite data: GDP: 0.2889
  Metabolite data: GMP: 0.4991
  Metabolite data: GTP: 0.06975
  Metabolite data: Glucose-1/6-Phosphate: -0.427
  Metabolite data: Glutathione Disulfide: 0.05831
  Metabolite data: Hexose: 0.379
  Metabolite data: Hydroxyisocaproic acid: -0.1664
  Metabolite data: Indole: 0.2013
  Metabolite data: Ketoleucine: -0.05747
  Metabolite data: L-arginino-succinate: 0.0004889
  Metabolite data: Lactate: 0.02998
  Metabolite data: Malate: 0.2897
  Metabolite data: Myo-Inositol: 0.2086
  Metabolite data: N-Acetyl-Glutamate: -0.6054
  Metabolite data: N-Acetyl-L-Alanine: 0.6768
  Metabolite data: N-Acetyl-L-Ornithine: -0.7962
  Metabolite data: N-Carbamoyl-L-Aspartate: -1.055
  Metabolite data: NAD+: 0.01132
  Metabolite data: NADH: 0.3116
  Metabolite data: NADP+: -0.07183
  Metabolite data: NADPH: 0.3145
  Metabolite data: Nicotinate: -0.004899
  Metabolite data: Octulose 8/1-Phosphate: 0.05155
  Metabolite data: Orotate: -0.6691
  Metabolite data: PD: -0.67
  Metabolite data: PE: -0.6545
  Metabolite data: PEEK: -0.6134
  Metabolite data: Phenol Red: 0.04234
  Metabolite data: Pyroglutamic acid: 0.6121
  Metabolite data: S-Adenosyl-L-Homocysteine: -0.2319
  Metabolite data: S-methyl-5'-thioadenosine: -0.02605
  Metabolite data: SD: -0.5163
  Metabolite data: Sedoheptulose Bisphosphate: -0.09842
  Metabolite data: UDP: 0.4977
  Metabolite data: UDP-D-Glucose: 0.03674
  Metabolite data: UDP-D-Glucuronate: 0.09403
  Metabolite data: UDP-N-Acetyl-Glucosamine: -0.09294
  Metabolite data: UMP: 0.6643
  Metabolite data: UTP: 0.267
  Metabolite data: a-ketoglutarate: 0.1182
  Metabolite data: acetyl-aspartate: 0.3762
  Metabolite data: arginine: 0.5929
  Metabolite data: asparagine: -0.2373
  Metabolite data: aspartate: 0.131
  Metabolite data: biotin: -0.04985
  Metabolite data: chlorpropamide: 0.3559
  Metabolite data: coenzyme A: 0.324
  Metabolite data: dAMP: 0.02964
  Metabolite data: dATP: 0.04443
  Metabolite data: dCDP: 0.4313
  Metabolite data: dCMP: 0.6234
  Metabolite data: dCTP: 0.2767
  Metabolite data: dGDP/ADP: 0.453
  Metabolite data: dGMP/AMP: 0.01705
  Metabolite data: dGTP/ATP: -0.2944
  Metabolite data: dTDP: 0.442
  Metabolite data: dTMP: 0.5345
  Metabolite data: dTTP: -0.02333
  Metabolite data: folate: 0.09364
  Metabolite data: glucono-lactone: 0.02131
  Metabolite data: glutamate: 0.09413
  Metabolite data: glutamine: 0.06047
  Metabolite data: glutathione: -0.1419
  Metabolite data: histidine: -0.01478
  Metabolite data: hydroxyproline/Aminolevulinate: 0.7882
  Metabolite data: isoleucine: 0.1307
  Metabolite data: leucine: 0.06401
  Metabolite data: maleic acid: 0.03547
  Metabolite data: methionine: 0.07829
  Metabolite data: nicotinamide mononucleotide: -0.2621
  Metabolite data: orotidine-5'-phosphate: -2.856
